{
  "source": "patent US20230125249A1",
  "about": "(FIRMENICH SA, priority 2017, published 2023)",
  "key": {"[1]": {"biological_target": "T1, OR5AN1 olfactory receptor (Homo sapiens, UniProt Q8NGI8)", "T1 construct": "expressed in transfected cells", "T1 sequence (Q8NGI8 1-311)": "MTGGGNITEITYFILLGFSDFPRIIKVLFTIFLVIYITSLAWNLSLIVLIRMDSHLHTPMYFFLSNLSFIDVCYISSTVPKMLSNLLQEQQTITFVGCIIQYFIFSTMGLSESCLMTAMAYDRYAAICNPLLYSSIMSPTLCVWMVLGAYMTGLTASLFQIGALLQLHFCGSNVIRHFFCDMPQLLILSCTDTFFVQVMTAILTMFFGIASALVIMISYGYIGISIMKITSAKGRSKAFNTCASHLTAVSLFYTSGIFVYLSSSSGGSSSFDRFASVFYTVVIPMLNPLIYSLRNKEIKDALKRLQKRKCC", "assay": "MUSCENONE®/musk dose-response on OR5AN1 in presence and absence of putative modulator (EC50 shift, span)", "type": "cell-based", "settings": "enhancer at 250 μM, FIG. 3A", "method": "Next, two parallel dose-response experiments to confirm the true enhancement properties of the potential candidates were performed. First, a dose-response of each individual candidate was performed to determine if it was an agonist by itself.\nThe resulting enhancement was quantified by means of EC50-fold shift (potency increase) and the efficacy span ratio (efficacy increase).\nThe EC50-fold shift was obtained by dividing the EC50 of MUSCENONE® +compound by the reference EC50 MUSCENONE® alone. The span ratio was obtained by dividing the span of MUSCENONE®+compound by the reference span of MUSCENONE® alone."}, "[2]": {"test_system": "OR5AN1 allele 3", "assay": "Cell based assay of hypofunctional OR5AN1 allele 3 with and without enhancer", "parameters": "species or system human", "settings": "allele 3, presence vs absence of enhancer"}, "[3]": {"biological_target": "T1, OR5AN1 olfactory receptor", "assay": "Allosteric EC50 shift analysis: MUSCENONE® dose response with serial concentrations of enhancer", "type": "cell-based", "method": "(§1) The level of enhancement of the OR5AN1 olfactory receptor activation was evaluated at distinct concentrations of the enhancer. […] The curves were obtained by applying the simplified Allosteric EC50 shift effect equation (available in Prism5, v. 5.02) derived from the ternary complex interaction model."}, "[4]": {"biological_target": "T2, Olfr1440 (Mus musculus, UniProt Q8VFV4)", "T2 construct": "expressed in transfected cells", "T2 sequence (Q8VFV4 1-315)": "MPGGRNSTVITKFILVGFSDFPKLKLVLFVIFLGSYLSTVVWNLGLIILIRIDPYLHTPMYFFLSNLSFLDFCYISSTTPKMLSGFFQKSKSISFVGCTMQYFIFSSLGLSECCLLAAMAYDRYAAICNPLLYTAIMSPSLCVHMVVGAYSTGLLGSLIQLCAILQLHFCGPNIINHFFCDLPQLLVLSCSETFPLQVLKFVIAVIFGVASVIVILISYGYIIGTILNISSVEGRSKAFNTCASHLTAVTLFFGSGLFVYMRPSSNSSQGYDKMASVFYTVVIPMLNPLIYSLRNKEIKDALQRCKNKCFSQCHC", "assay": "Control enhancement experiment on mouse ortholog receptor", "type": "cell-based", "method": "as §1\nFurthermore and as a control, a similar experiment was performed on the mouse MUSCENONE® responsive odorant receptor Olfr1440, the ortholog of OR5AN1."}, "[5]": {"test_system": "OR5AN1 allele 4", "assay": "Cell based assay of hypofunctional OR5AN1 allele 4 with and without enhancer", "parameters": "species or system human", "settings": "allele 4, presence vs absence of enhancer"}, "[6]": {"biological_target": "T1, OR5AN1 olfactory receptor", "assay": "Dose-response of individual candidate alone (intrinsic agonist activity) on OR5AN1", "type": "cell-based", "method": "15 candidates, marked as “enhancement” in Table 2 were identified. Strikingly, 80% of these putative enhancers (12/15) belonged to the same class of chemicals: unsaturated aliphatic aldehydes. Next, two parallel dose-response experiments to confirm the true enhancement properties of the potential candidates were performed. First, a dose-response of each individual candidate was performed to determine if it was an agonist by itself. Second, a MUSCENONE® dose-response curve in the presence and absence of a 250 μM concentration of the putative modulator was assessed for EC50 shifts."}},
  "data": [
    {"smiles": "CCCCCCCCCC/C=C/C=O", "note": "[tridecylenic aldehyde]", "values": [
      {"measurement": "Maximal activation level (span) of MUSCENONE®", "setting": "[1]", "result": "increased span"},
      {"measurement": "Activity span-ratio", "setting": "[2]", "result": 2.02},
      {"measurement": "α (cooperativity factor)", "setting": "[3]; Allosteric EC50 shift model, enhancer 0 to 1 mM", "result": 15.7},
      {"measurement": "Kb", "setting": "[3]; read-out: KB (equilibrium dissociation constant)", "result": 259, "unit": "µM"},
      {"measurement": "Effect on Olfr1440 MUSCENONE®-induced activation", "setting": "[4]", "result": "slight inhibition"},
      {"measurement": "Activity span-ratio", "setting": "[5]", "result": 2.16},
      {"measurement": "Activation of OR5AN1 by the compound by itself", "setting": "[6]", "result": "did not activate the OR5AN1 olfactory receptor by itself"},
      {"measurement": "Activation by compound alone relative to the MUSCENONE® activation window", "setting": "[6]; above approximately 100 μM", "result": "less than 8%"}
    ]}
  ]
}
